Data published in the NIST ThermoML archive (doi:10.1021/je900244c).
“And” between values parts separate entries of the source, which are not always exact repeats. Equal entries are not always repeated.

Experiment: xn = mol fraction of the nth substance listed
Conditions: 323.15 K, Gas, Buoyancy - hydrostatic balance with magnetic suspension - two sinkers

CC(C)C [2-methylpropane] + CCC
Conditions | mass density
660.6 kPa, x2 = 0.244 | 15.487 kg/m3
670 kPa, x2 = 0.244 | 15.744 kg/m3
670 kPa, x2 = 0.249 | 15.714 kg/m3
670.1 kPa, x2 = 0.249 | 15.719 kg/m3
679.7 kPa, x2 = 0.244 | 16.015 kg/m3
680.3 kPa, x2 = 0.249 | 15.998 kg/m3
680.4 kPa, x2 = 0.249 | 16.006 kg/m3
690.2 kPa, x2 = 0.244 | 16.31 kg/m3
690.2 kPa, x2 = 0.249 | 16.277 kg/m3 and 16.285 kg/m3
691.1 kPa, x2 = 0.244 | 16.328 kg/m3
700.1 kPa, x2 = 0.244 | 16.592 kg/m3
700.3 kPa, x2 = 0.249 | 16.571 kg/m3
700.4 kPa, x2 = 0.249 | 16.571 kg/m3
709.8 kPa, x2 = 0.244 | 16.868 kg/m3
710 kPa, x2 = 0.249 | 16.835 kg/m3
710.1 kPa, x2 = 0.249 | 16.843 kg/m3
710.3 kPa, x2 = 0.244 | 16.875 kg/m3
720.3 kPa, x2 = 0.249 | 17.129 kg/m3
720.4 kPa, x2 = 0.249 | 17.137 kg/m3
720.6 kPa, x2 = 0.244 | 17.177 kg/m3
730 kPa, x2 = 0.249 | 17.416 kg/m3
730.3 kPa, x2 = 0.249 | 17.408 kg/m3
730.4 kPa, x2 = 0.244 | 17.456 kg/m3
730.5 kPa, x2 = 0.244 | 17.456 kg/m3
739.8 kPa, x2 = 0.249 | 17.687 kg/m3
740 kPa, x2 = 0.249 | 17.697 kg/m3
740.4 kPa, x2 = 0.244 | 17.75 kg/m3
749.8 kPa, x2 = 0.244 | 18.022 kg/m3
750 kPa, x2 = 0.249 | 17.989 kg/m3 and 17.996 kg/m3
750.2 kPa, x2 = 0.244 | 18.029 kg/m3
759.7 kPa, x2 = 0.249 | 18.276 kg/m3
759.9 kPa, x2 = 0.249 | 18.276 kg/m3
761.2 kPa, x2 = 0.244 | 18.357 kg/m3
769.7 kPa, x2 = 0.244 | 18.602 kg/m3
769.9 kPa, x2 = 0.249 | 18.577 kg/m3
770 kPa, x2 = 0.249 | 18.577 kg/m3
770.4 kPa, x2 = 0.499 | 16.983 kg/m3
770.7 kPa, x2 = 0.499 | 16.982 kg/m3
780 kPa, x2 = 0.249 | 18.871 kg/m3
780.2 kPa, x2 = 0.499 | 17.239 kg/m3
780.3 kPa, x2 = 0.499 | 17.244 kg/m3
780.5 kPa, x2 = 0.249 | 18.894 kg/m3
790.6 kPa, x2 = 0.244 | 19.228 kg/m3
790.6 kPa, x2 = 0.499 | 17.513 kg/m3
799.9 kPa, x2 = 0.249 | 19.467 kg/m3
800.2 kPa, x2 = 0.499 | 17.765 kg/m3 and 17.769 kg/m3
810.5 kPa, x2 = 0.499 | 18.042 kg/m3
820.2 kPa, x2 = 0.499 | 18.299 kg/m3
820.4 kPa, x2 = 0.499 | 18.307 kg/m3
830.3 kPa, x2 = 0.499 | 18.572 kg/m3
840.3 kPa, x2 = 0.499 | 18.844 kg/m3
840.4 kPa, x2 = 0.499 | 18.848 kg/m3
850.3 kPa, x2 = 0.499 | 19.121 kg/m3
860.2 kPa, x2 = 0.499 | 19.387 kg/m3
860.4 kPa, x2 = 0.499 | 19.398 kg/m3
870.4 kPa, x2 = 0.499 | 19.669 kg/m3
879.9 kPa, x2 = 0.499 | 19.938 kg/m3
880.4 kPa, x2 = 0.499 | 19.948 kg/m3
890.2 kPa, x2 = 0.499 | 20.228 kg/m3
900.1 kPa, x2 = 0.499 | 20.506 kg/m3
900.6 kPa, x2 = 0.499 | 20.517 kg/m3
910.1 kPa, x2 = 0.499 | 20.784 kg/m3
920.3 kPa, x2 = 0.499 | 21.078 kg/m3
920.6 kPa, x2 = 0.499 | 21.087 kg/m3
930.3 kPa, x2 = 0.499 | 21.359 kg/m3
939.7 kPa, x2 = 0.499 | 21.637 kg/m3
939.8 kPa, x2 = 0.499 | 21.635 kg/m3
950.6 kPa, x2 = 0.499 | 21.949 kg/m3
960.2 kPa, x2 = 0.499 | 22.222 kg/m3
960.3 kPa, x2 = 0.499 | 22.242 kg/m3
970.3 kPa, x2 = 0.499 | 22.521 kg/m3
978.9 kPa, x2 = 0.499 | 22.767 kg/m3
979.6 kPa, x2 = 0.499 | 22.791 kg/m3
